From the NIST ThermoML archive (doi:10.1021/je050173+)

What was measured:
[1] = for surface tension liquid-gas: Maximal bubble pressure; for viscosity / mass density / thermal conductivity: 101.33 kPa; for viscosity / mass density / thermal conductivity / vapor or sublimation pressure: Liquid; for thermal conductivity: Hot wire method
[2] = molar heat capacity at constant pressure; details: 101.33 kPa, Liquid

C[Si]1(C)O[Si](C)(C)O[Si](C)(C)O[Si](C)(C)O[Si](C)(C)O1 [decamethylcyclopentasiloxane]
Details	mass density [kg/m3]	molar heat capacity at constant pressure [J/K/mol]	surface tension liquid-gas [mN/m]	thermal conductivity [W/m/K]	vapor or sublimation pressure [kPa]	viscosity [mPa·s]
[1], 293.15 K	–	–	18.04	–	–	4.28
[1], 295.05 K	956.75	–	–	–	–	–
[1], 298.15 K	–	–	–	0.1255	–	3.87
[1], 300.1 K	951.14	–	–	–	–	–
[1], 303.15 K	–	–	17.4	–	–	3.48
[1], 303.95 K	946.93	–	–	–	–	–
[1], 310.3 K	939.94	–	–	–	–	–
[1], 313.15 K	–	–	16.71	–	–	2.82
[1], 313.17 K	936.67	–	–	–	–	–
[1], 320.5 K	928.72	–	–	–	–	–
[1], 323.15 K	–	–	15.99	–	–	2.38
[1], 325.6 K	923.12	–	–	–	–	–
[1], 332.95 K	–	–	–	–	–	2.02
[1], 333.15 K	915.02	–	15.42	–	–	–
[1], 340.9 K	906.3	–	–	–	–	–
[1], 343.15 K	–	–	14.67	0.1186	–	1.71
[1], 346.05 K	900.69	–	–	–	–	–
[1], 348.23 K	–	–	–	–	0.703	–
[1], 350.87 K	–	–	–	–	0.801	–
[1], 351.11 K	–	–	–	–	0.82	–
[1], 353.1 K	892.8	–	–	–	–	–
[1], 353.15 K	–	–	13.98	–	–	1.48
[1], 355.91 K	–	–	–	–	1.103	–
[1], 357.29 K	–	–	–	–	1.207	–
[1], 361.2 K	–	–	–	–	1.468	–
[1], 363.15 K	–	–	13.3	–	–	–
[1], 366.4 K	878.24	–	–	–	–	–
[1], 370.08 K	–	–	–	–	2.381	–
[1], 373.15 K	870.77	–	12.64	–	–	1.11
[1], 374.37 K	–	–	–	–	2.913	–
[1], 377.85 K	–	–	–	–	3.452	–
[1], 378.07 K	–	–	–	–	3.482	–
[1], 380.74 K	–	–	–	–	3.901	–
[1], 381.7 K	861.4	–	–	–	–	–
[1], 391.9 K	850.17	–	–	–	–	–
[1], 393.15 K	–	–	11.28	–	–	0.86
[1], 394.66 K	–	–	–	–	7.191	–
[1], 397 K	844.55	–	–	–	–	–
[1], 398.63 K	–	–	–	–	8.45	–
[1], 402.72 K	–	–	–	–	9.938	–
[1], 407.2 K	833.32	–	–	–	–	–
[1], 412.81 K	–	–	–	–	14.52	–
[1], 413.15 K	826.73	–	9.93	–	–	0.69
[1], 416.46 K	–	–	–	–	16.55	–
[1], 417.4 K	822.08	–	–	–	–	–
[1], 422.5 K	816.45	–	–	–	–	–
[1], 423.94 K	–	–	–	–	21.39	–
[1], 432.91 K	–	–	–	–	28.6	–
[1], 433.15 K	804.71	–	8.57	–	–	–
[1], 439.98 K	–	–	–	–	35.47	–
[1], 442.9 K	793.98	–	–	–	–	–
[1], 448.41 K	–	–	–	–	45.28	–
[1], 453.15 K	782.6	–	–	–	–	0.46
[1], 455.39 K	–	–	–	–	54.85	–
[1], 462.39 K	–	–	–	–	66.09	–
[1], 473.15 K	–	–	–	–	–	0.39
[1], 479.53 K	–	–	–	–	100.9	–
[1], 493.15 K	–	–	–	–	–	0.33
[2], 288.78 K	–	636.3	–	–	–	–
[2], 293.13 K	–	638.5	–	–	–	–
[2], 297.95 K	–	640.6	–	–	–	–
[2], 303.18 K	–	643.1	–	–	–	–
[2], 308.95 K	–	644.5	–	–	–	–
[2], 313.15 K	–	647.7	–	–	–	–
[2], 319 K	–	650.4	–	–	–	–
[2], 323.15 K	–	652.4	–	–	–	–
[2], 329.05 K	–	655.1	–	–	–	–
[2], 334.74 K	–	657.9	–	–	–	–
[2], 338.5 K	–	659.5	–	–	–	–
[2], 342.08 K	–	661.2	–	–	–	–
[2], 349.25 K	–	664.5	–	–	–	–
[2], 352.2 K	–	667.1	–	–	–	–
[2], 356.83 K	–	668	–	–	–	–
[2], 361.28 K	–	670.1	–	–	–	–
[2], 366.35 K	–	672.4	–	–	–	–
[2], 370.25 K	–	674.2	–	–	–	–
[2], 375.43 K	–	676.6	–	–	–	–
[2], 380.95 K	–	679.1	–	–	–	–
[2], 388.65 K	–	682.5	–	–	–	–
[2], 391.43 K	–	684	–	–	–	–
[2], 399.84 K	–	687.9	–	–	–	–
[2], 401.55 K	–	688.6	–	–	–	–
[2], 407.15 K	–	691.2	–	–	–	–
[2], 412.77 K	–	693.8	–	–	–	–
[2], 419.95 K	–	697.1	–	–	–	–
[2], 425.95 K	–	698.5	–	–	–	–
[2], 433.28 K	–	703.2	–	–	–	–
[2], 439.98 K	–	706.3	–	–	–	–
[2], 444.9 K	–	709.2	–	–	–	–
[2], 452.4 K	–	711.9	–	–	–	–
[2], 463.15 K	–	716.9	–	–	–	–
[2], 469.05 K	–	719.5	–	–	–	–
[2], 473.15 K	–	721.5	–	–	–	–

C[Si]1(C)O[Si](C)(C)O[Si](C)(C)O1 [hexamethylcyclotrisiloxane]
Details	mass density [kg/m3]	molar heat capacity at constant pressure [J/K/mol]	surface tension liquid-gas [mN/m]	thermal conductivity [W/m/K]	vapor or sublimation pressure [kPa]	viscosity [mPa·s]
[1], 343.15 K	872.69	–	–	0.1026	–	0.48
[1], 344.55 K	–	–	13.54	–	–	–
[1], 347.35 K	–	–	13.32	–	–	–
[1], 347.64 K	–	–	–	–	13.85	–
[1], 348.15 K	–	–	–	–	–	0.46
[1], 348.7 K	865.41	–	–	–	–	–
[1], 350.13 K	–	–	–	–	15.28	–
[1], 351.45 K	–	–	–	–	16.19	–
[1], 353.15 K	–	–	–	–	–	0.44
[1], 353.95 K	–	–	12.9	–	–	–
[1], 354.65 K	856.98	–	–	–	–	–
[1], 355.59 K	–	–	–	–	19.01	–
[1], 357.4 K	854.11	–	–	–	–	–
[1], 358.15 K	–	–	–	–	–	0.42
[1], 358.45 K	–	–	12.68	–	–	–
[1], 359.15 K	852.6	–	–	–	–	–
[1], 360.17 K	–	–	–	–	22.55	–
[1], 361.61 K	–	–	–	–	23.75	–
[1], 362.4 K	–	–	–	–	24.47	–
[1], 363.15 K	–	–	12.33	–	–	0.4
[1], 365.71 K	–	–	–	–	27.62	–
[1], 366.1 K	842.76	–	–	–	–	–
[1], 368.15 K	–	–	12.02	–	–	0.39
[1], 368.81 K	–	–	–	–	30.71	–
[1], 369.65 K	838	–	–	–	–	–
[1], 372.34 K	–	–	–	–	34.63	–
[1], 372.68 K	–	–	–	–	35.01	–
[1], 373.15 K	833.47	–	11.71	–	–	0.37
[1], 378.15 K	–	–	11.4	–	–	0.35
[1], 379.16 K	825.64	–	–	–	–	–
[1], 381.37 K	–	–	–	–	46.63	–
[1], 383.15 K	820.39	–	11.09	–	–	0.34
[1], 383.78 K	–	–	–	–	50.31	–
[1], 387.85 K	814.16	–	–	–	–	–
[1], 387.95 K	–	–	–	–	57.22	–
[1], 388.15 K	–	–	–	–	–	0.33
[1], 393.15 K	–	–	–	–	–	0.32
[1], 397.75 K	–	–	–	–	76.52	–
[1], 407.63 K	–	–	–	–	100.85	–
[2], 339.9 K	–	404.5	–	–	–	–
[2], 343.15 K	–	405.9	–	–	–	–
[2], 345.03 K	–	406.7	–	–	–	–
[2], 353.15 K	–	410.4	–	–	–	–
[2], 357.92 K	–	412.3	–	–	–	–
[2], 361.2 K	–	413.8	–	–	–	–
[2], 365.09 K	–	415.6	–	–	–	–
[2], 370.16 K	–	418.1	–	–	–	–
[2], 374.79 K	–	420.1	–	–	–	–
[2], 379.42 K	–	421.8	–	–	–	–
[2], 383.15 K	–	423.6	–	–	–	–
[2], 388.06 K	–	425.6	–	–	–	–
[2], 393.14 K	–	428.1	–	–	–	–
[2], 398.01 K	–	430	–	–	–	–
[2], 400 K	–	431	–	–	–	–
[2], 404.89 K	–	433.2	–	–	–	–
